From patent US7829591B2, “Flavanone compound and uses thereof” (Pokka Corporation, priority 2003, dated 2010)

Assay: β-carotene fading test
Type: biochemical
Conditions: for Antioxidant Activity (%) from β-carotene Fading Test: 20 μM in reaction liquid, 60° C. for 60 minutes, absorbance 470 nm, average ± SD of three runs; for antioxidant activity (in words): comparison from Table 1
Description: β-carotene will fade due to the reaction of linoleic acid peroxide, which is produced by the autoxidation of linoleic acid, with a double bond in β-carotene. This phenomenon was utilized so as to determine the antioxidant activity of each of Compounds 1 to 4 and the like. That is, first of all, 2 ml of a 200 mg/ml solution of Tween-40 in chloroform, 0.4 ml of a 100 mg/ml solution of linoleic acid in chloroform, and 3 ml of a 0.1 mg/ml solution of β-carotene in chloroform were mixed, and thereafter the solvent was removed by using a nitrogen gas. Subsequently, 100 ml of distilled water was added thereto, and adequately stirred to obtain an emulsion. To 3 ml of this emulsion, ethanol was added to completely dissolve the solute in the solvent. Thereafter, each of Compounds 1 to 4 was dissolved in ethanol so as to prepare a sample solution having a concentration of 1.2 mM. 50 μl of the sample solution was mixed with the above emulsion wherein the solute had been completely dissolved so as to prepare a reaction liquid (or a sample reaction liquid). Then the concentration of each of Compounds 1 to 4 in the reaction liquid was 20 μM. The reaction liquid was incubated at 60° C. for 60 minutes. Then the absorbance of each of the reaction liquid before the incubation and the reaction liquid after the incubation was determined at 470 nm. Furthermore, BHT, α-tocopherol, or eriodictyol was used in place of Compounds 1 to 4 so as to determine the absorbance of the reaction liquid before and after incubation according to a similar procedure to the above-mentioned one. In addition, as a control, a reaction liquid (or a control reaction liquid) wherein no sample solution was contained was prepared so as to determine the absorbance of the reaction liquid before and after incubation according to a similar procedure to the above-mentioned one. The antioxidant activity (%) of each of the materials was calculated using the following calculation formula 2. Incidentally, each of values shown in Table 1 is the average value and standard deviation of values obtained from three runs. (Antioxidant Activity)=[{(Fading Rate of Control)−(Fading Rate of Sample Solution)}/(Fading Rate of Control)]×100 Calculation Formula 2
It should be noted that in the calculation formula 2, “Fading Rate of Control” is the natural logarithm of a value which is acquired by dividing the absorbance of the control reaction liquid before incubation by the absorbance of the control reaction liquid after incubation and further by dividing the resultant value by 60; and “Fading Rate of Sample Solution” is the natural logarithm of a value which is acquired by dividing the absorbance of the sample reaction liquid before incubation by the absorbance of the sample reaction liquid after incubation and further by dividing the resultant value by 60.

## CC(C)=CCC/C(C)=C/Cc1c([C@@H]2CC(=O)c3c(O)cc(O)cc3O2)ccc(O)c1O [Compound 1, 5,7,3′,4′-tetrahydroxy-2′-C-geranylflavanone]
  Antioxidant Activity (%) from β-carotene Fading Test: 85.54 ± 2.24%
  antioxidant activity (in words): about the same high antioxidant activity as that of each of BHT, α-tocopherol, and eriodictyol

## CC(C)=CCC/C(C)=C/Cc1c([C@@H]2CC(=O)c3c(cc(O)c(CC=C(C)C)c3O)O2)ccc(O)c1O [Compound 4, 5,7,3′,4′-tetrahydroxy-6-(3′″,3′″-dimethylallyl)-2′-C-geranylflavanone]
  Antioxidant Activity (%) from β-carotene Fading Test: 80.06 ± 0.29%
  antioxidant activity (in words): about the same high antioxidant activity as that of each of BHT, α-tocopherol, and eriodictyol

## CC(C)=CCC/C(C)=C/Cc1cc([C@@H]2CC(=O)c3c(O)cc(O)cc3O2)cc(O)c1O [Compound 2, 5,7,3′,4′-tetrahydroxy-5′-C-geranylflavanone]
  Antioxidant Activity (%) from β-carotene Fading Test: 78.07 ± 1.79%
  antioxidant activity (in words): about the same high antioxidant activity as that of each of BHT, α-tocopherol, and eriodictyol

## CC(C)=CCC/C(C)=C/Cc1c(O)cc2c(c1O)C(=O)C[C@@H](c1ccc(O)c(O)c1)O2 [Compound 3, 5,7,3′,4′-tetrahydroxy-6-C-geranylflavanone]
  Antioxidant Activity (%) from β-carotene Fading Test: 60.62 ± 1.16%
